Laboratory results as given in patent publication US9725442B2, “Heterocyclic derivative having PGD2 receptor antagonist activity” (Shionogi & Co., Ltd., priority 2011, dated 2017).
Read-outs that look alike come from different tables or passages of the source.

Columns and labels:
Human DP1 receptor = Human DP1 receptor (Homo sapiens (Human), UniProt Q13258); experiment: Human DP1 inhibitory activity in DP1-expressing cell (PGD2-induced cAMP); format: cell-based; conditions: category of cAMP IC50, human DP1 receptor expressing Jurkut cell
Experimental: Compounds were categorized as AA (cAMP is less than 100 nM) and A (cAMP is more than 100 nM and less than 5000 nM) as shown in Table 99 and 100.

CRTH2 = CRTH2 (Homo sapiens (Human), UniProt Q9Y5Y4); experiment: CRTH2 receptor binding inhibitory activity ([3H]-PGD2 displacement, membranes of CRTH2-expressing K562 cell)
Experimental: Cell membrane was prepared from CRTH2-expressing K562 cell. The cell membrane (20 μg/well) was mixed with reaction buffer (50 mM Tris/HCl, pH 7.4, 10 mM MgCl2). Then, [^3H]-PGD2 was added to the mixture and incubated for 60 min at room temperature. […] Then, the mixture was filtrated with glass paper immediately. The filter paper was washed several times and radio activity on the filter was measured. Specific binding was defined as difference between total and non-specific binding (radio activity with 10 μM PGD2). Ki values for each compound were calculated from displacement curve.

[1] = CRTH2 receptor binding, [3H]-PGD2 displacement, membrane of CRTH2-expressing K562 cell, categorized AAAA/AAA, read-out: Ki
[2] = [3H]-PGD2 displacement, membrane of CRTH2-expressing K562 cell, read-out: Ki

CRTH2, sequence (Q9Y5Y4 whole entry): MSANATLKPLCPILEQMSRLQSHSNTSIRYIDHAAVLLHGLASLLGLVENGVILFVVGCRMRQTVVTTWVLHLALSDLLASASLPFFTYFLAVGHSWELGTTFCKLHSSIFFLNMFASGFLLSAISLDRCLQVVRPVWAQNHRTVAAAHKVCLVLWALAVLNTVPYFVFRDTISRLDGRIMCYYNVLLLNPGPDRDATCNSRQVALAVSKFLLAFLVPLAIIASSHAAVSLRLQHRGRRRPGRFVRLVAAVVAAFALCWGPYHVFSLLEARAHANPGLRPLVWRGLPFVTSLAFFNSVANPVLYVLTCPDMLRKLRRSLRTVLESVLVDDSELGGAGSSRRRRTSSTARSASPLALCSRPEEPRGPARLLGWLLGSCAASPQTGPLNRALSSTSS
Human DP1 receptor, sequence (Q13258 whole entry): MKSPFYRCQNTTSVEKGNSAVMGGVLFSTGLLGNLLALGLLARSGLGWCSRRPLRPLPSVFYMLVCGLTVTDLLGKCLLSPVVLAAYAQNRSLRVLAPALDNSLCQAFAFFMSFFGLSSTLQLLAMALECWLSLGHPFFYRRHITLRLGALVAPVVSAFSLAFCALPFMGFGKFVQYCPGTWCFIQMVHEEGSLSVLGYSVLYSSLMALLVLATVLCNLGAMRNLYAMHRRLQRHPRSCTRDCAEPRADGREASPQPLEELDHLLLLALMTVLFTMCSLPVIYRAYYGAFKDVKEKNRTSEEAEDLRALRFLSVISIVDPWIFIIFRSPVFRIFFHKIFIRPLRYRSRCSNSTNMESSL

| Compound | IC50 (Human DP1 receptor) | Ki (CRTH2) | Ki (CRTH2; [1]) | Ki (CRTH2; [2]) |
| --- | --- | --- | --- | --- |
| O=C(O)Cc1nn([C@H]2C[C@H]3CC[C@@H](C2)N3S(=O)(=O)c2ccc(F)cc2)c2cc(F)ccc12 [Compound I-82] | 100 to 5000 nM | 100 to 5000 nM | – | – |
| CC(C)Oc1ccc(S(=O)(=O)N2[C@@H]3CC[C@H]2C[C@@H](n2nc(CC(=O)O)c4ccc(F)cc42)C3)cc1 [Compound I-83] | < 100 nM | 100 to 5000 nM | – | – |
| CC(C)Oc1ccc(S(=O)(=O)N2C[C@H](n3nc(CC(=O)O)c4ccc(F)cc43)[C@@](C)(O)C2)cc1 [Compound I-84] | 100 to 5000 nM | – | < 100 nM | – |
| CC(C)Oc1ccc(S(=O)(=O)N2C[C@H](n3nc(CC(=O)O)c4ccccc43)[C@@](C)(O)C2)cc1 [Compound I-86] | 100 to 5000 nM | – | < 100 nM | – |
| Cc1ccc2c(CC(=O)O)nn([C@H]3CN(S(=O)(=O)c4ccc(OC(C)C)cc4)C[C@]3(C)O)c2c1 [Compound I-87] | 100 to 5000 nM | – | < 100 nM | – |
| CC(C)Oc1ccc(S(=O)(=O)N2C[C@H](n3nc(CC(=O)O)c4ccccc43)[C@](C)(F)C2)cc1 [Compound I-88] | < 100 nM | – | < 100 nM | – |
| CC(C)Oc1ccc(S(=O)(=O)N2C[C@H](n3nc(CC(=O)O)c4ccccc43)C[C@@H]2C(F)F)cc1 [Compound I-90] | < 100 nM | – | 100 to 5000 nM | – |
| CC(C)Oc1ccc(S(=O)(=O)N2C[C@H](n3nc(CC(=O)O)c4ccccc43)C[C@@H]2C)cc1 [Compound I-91] | < 100 nM | – | < 100 nM | – |
| Cc1ccc2c(CC(=O)O)nn([C@@H]3C[C@H](C(F)F)N(S(=O)(=O)c4ccc(OC(C)C)cc4)C3)c2c1 [Compound I-92] | < 100 nM | – | 100 to 5000 nM | – |
| CC(C)Oc1ccc(S(=O)(=O)N2C[C@H](n3nc(CC(=O)O)c4ccc(Cl)cc43)C[C@@H]2C(F)F)cc1 [Compound I-93] | < 100 nM | – | 100 to 5000 nM | – |
| Cc1ccc2c(CC(=O)O)nn([C@@H]3C[C@H](C)N(S(=O)(=O)c4ccc(OC(C)C)cc4)C3)c2c1 [Compound I-94] | < 100 nM | – | < 100 nM | – |
| CC(C)Oc1ccc(S(=O)(=O)N2C[C@H](n3nc(CC(=O)O)c4ccc(Cl)cc43)C[C@@H]2C)cc1 [Compound I-95] | < 100 nM | – | < 100 nM | – |
| C[C@@H]1CN(S(=O)(=O)c2ccc(OC(F)F)cc2)C[C@@H]1n1nc(CC(=O)O)c2ccccc21 [Compound I-98] | < 100 nM | – | < 100 nM | – |
| CC(C)Oc1ccc(S(=O)(=O)N2C[C@@H](C)[C@@H](n3nc(CC(=O)O)c4ccccc43)C2)cn1 [Compound I-99] | < 100 nM | – | < 100 nM | – |
| CC(C)Oc1ccc(S(=O)(=O)N2C[C@@H](C)[C@@H](n3nc(/C=C/C(=O)O)c4ccc(F)cc43)C2)cc1 [Compound I-100] | 100 to 5000 nM | – | < 100 nM | – |
| CC(C)Oc1ccc(S(=O)(=O)N2C[C@@H](C)[C@@H](n3nc(CCC(=O)O)c4ccc(F)cc43)C2)cc1 [Compound I-101] | 100 to 5000 nM | – | 100 to 5000 nM | – |
| C=C[C@H]1C[C@@H](n2nc(CC(=O)O)c3ccc(F)cc32)CN1S(=O)(=O)c1ccc(OC(C)C)cc1 [Compound I-102] | < 100 nM | – | < 100 nM | – |
| CC[C@H]1C[C@@H](n2nc(CC(=O)O)c3ccc(F)cc32)CN1S(=O)(=O)c1ccc(OC(C)C)cc1 [Compound I-103] | < 100 nM | – | < 100 nM | – |
| CC(C)Oc1ccc(S(=O)(=O)N2C[C@H](n3nc(CC(=O)O)c4ccc(F)cc43)C[C@]2(C)C#N)cc1 [Compound I-104] | < 100 nM | – | < 100 nM | 16 nM |
| CC(C)Oc1ccc(S(=O)(=O)N2C[C@H](n3nc(CC(=O)O)c4ccc(F)cc43)C[C@@]2(C)C#N)cc1 [Compound I-105] | < 100 nM | – | < 100 nM | – |
| CCOc1ccc(S(=O)(=O)N2C[C@@H](C)[C@@H](n3nc(CC(=O)O)c4ccc(F)cc43)C2)cc1 [Compound I-106] | < 100 nM | – | < 100 nM | – |
| C[C@@H]1CN(S(=O)(=O)c2ccc(OC(F)F)cc2)C[C@@H]1n1nc(CC(=O)O)c2ccc(F)cc21 [Compound I-107] | < 100 nM | – | < 100 nM | – |
| CCOc1ccc(S(=O)(=O)N2C[C@@H](C)[C@@H](n3nc(CC(=O)O)c4ccc(F)cc43)C2)cn1 [Compound I-108] | < 100 nM | – | < 100 nM | – |

| Compound | IC50 (Human DP1 receptor) | Ki (CRTH2) | Ki (CRTH2; [1]) | Ki (CRTH2; [2]) |
| --- | --- | --- | --- | --- |
| CCOc1ccc(S(=O)(=O)N2C[C@@H](C)[C@@H](n3nc(CC(=O)O)c4ccc(C)cc43)C2)cc1 [Compound I-109] | < 100 nM | – | < 100 nM | – |
| Cc1ccc2c(CC(=O)O)nn([C@H]3CN(S(=O)(=O)c4ccc(OC(F)F)cc4)C[C@H]3C)c2c1 [Compound I-110] | < 100 nM | – | < 100 nM | – |
| CCOc1ccc(S(=O)(=O)N2C[C@@H](C)[C@@H](n3nc(CC(=O)O)c4ccc(C)cc43)C2)cn1 [Compound I-111] | < 100 nM | – | < 100 nM | – |
| COc1ccc(S(=O)(=O)N2C[C@@H](C)[C@@H](n3nc(CC(=O)O)c4ccc(F)cc43)C2)cc1 [Compound I-112] | < 100 nM | – | < 100 nM | – |
| C[C@@H]1CN(S(=O)(=O)c2ccc(C3CC3)cc2)C[C@@H]1n1nc(CC(=O)O)c2ccc(F)cc21 [Compound I-113] | < 100 nM | – | < 100 nM | 17 nM |
| Cc1ccc2c(CC(=O)O)nn([C@H]3CN(S(=O)(=O)c4ccc(OC(C)C)cc4)C[C@@H]3C)c2c1 [Compound I-114] | < 100 nM | – | < 100 nM | – |
| CC(C)Oc1ccc(S(=O)(=O)N2C[C@H](C)[C@@H](n3nc(CC(=O)O)c4ccccc43)C2)cc1 [Compound I-115] | < 100 nM | – | < 100 nM | – |
| COc1ccc(S(=O)(=O)N2C[C@@H](C)[C@@H](n3nc(CC(=O)O)c4ccc(F)cc43)C2)cn1 [Compound I-116] | 100 to 5000 nM | – | < 100 nM | – |
| Cc1ccc(S(=O)(=O)N2C[C@@H](C)[C@@H](n3nc(CC(=O)O)c4ccc(F)cc43)C2)cc1 [Compound I-117] | 100 to 5000 nM | – | < 100 nM | 1.6 nM |
| CCc1ccc(S(=O)(=O)N2C[C@@H](C)[C@@H](n3nc(CC(=O)O)c4ccc(F)cc43)C2)cc1 [Compound I-118] | < 100 nM | – | < 100 nM | – |
| C[C@@H]1CN(S(=O)(=O)c2ccc(C(F)(F)F)cc2)C[C@@H]1n1nc(CC(=O)O)c2ccc(F)cc21 [Compound I-119] | 100 to 5000 nM | – | < 100 nM | – |
| C[C@@H]1CN(S(=O)(=O)c2ccc(OC(F)(F)F)cc2)C[C@@H]1n1nc(CC(=O)O)c2ccc(F)cc21 [Compound I-120] | < 100 nM | – | < 100 nM | – |
| C[C@@H]1CN(S(=O)(=O)c2ccccc2Cl)C[C@@H]1n1nc(CC(=O)O)c2ccc(F)cc21 [Compound I-121] | 100 to 5000 nM | – | < 100 nM | – |
| C[C@@H]1CN(S(=O)(=O)c2cccc(Cl)c2)C[C@@H]1n1nc(CC(=O)O)c2ccc(F)cc21 [Compound I-122] | 100 to 5000 nM | – | < 100 nM | 2.5 nM |
| C[C@@H]1CN(S(=O)(=O)c2ccccc2C#N)C[C@@H]1n1nc(CC(=O)O)c2ccc(F)cc21 [Compound I-124] | 100 to 5000 nM | – | < 100 nM | – |
| CCOc1cc(F)c(S(=O)(=O)N2C[C@@H](C)[C@@H](n3nc(CC(=O)O)c4ccc(F)cc43)C2)c(F)c1 [Compound I-125] | 100 to 5000 nM | – | < 100 nM | – |
| CCc1ccc(S(=O)(=O)N2C[C@@H](C)[C@@H](n3nc(CC(=O)O)c4ccc(C(F)(F)F)cc43)C2)cc1 [Compound I-126] | < 100 nM | – | < 100 nM | – |
| C[C@@H]1CN(S(=O)(=O)c2ccc(OC(F)F)cc2)C[C@@H]1n1nc(CC(=O)O)c2ccc(C(F)(F)F)cc21 [Compound I-127] | < 100 nM | – | < 100 nM | – |
| COc1ccc(S(=O)(=O)N2C[C@@H](C)[C@@H](n3nc(CC(=O)O)c4ccc(C(F)(F)F)cc43)C2)cc1 [Compound I-128] | < 100 nM | – | < 100 nM | – |
| CCOc1ccc(S(=O)(=O)N2C[C@@H](C)[C@@H](n3nc(CC(=O)O)c4ccc(C(F)(F)F)cc43)C2)cc1 [Compound I-129] | < 100 nM | – | < 100 nM | – |
| CCOc1ccc(S(=O)(=O)N2C[C@@H](C)[C@@H](n3nc(CC(=O)O)c4ccc(C(F)(F)F)cc43)C2)cn1 [Compound I-132] | < 100 nM | – | < 100 nM | – |
| CC(C)Oc1ccc(S(=O)(=O)N2C[C@H](n3nc(CC(=O)O)c4cccc(F)c43)C[C@@H]2C(F)F)cc1 [Compound I-133] | 100 to 5000 nM | – | 100 to 5000 nM | – |
